Marks after values point to notes of the source that are not given here.
Tests used:
[1] = Compound levels in blood, brain and skin of C57BL/6 mice (HPLC/MS/MS); settings: for AUCbrain (AUC0-24 h) / AUCventral skin (AUC0-24 h) / AUCdorsal skin (AUC0-24 h) / AUC(0-t): day 56; for AUCbrain (AUC0-24 h) / AUCventral skin (AUC0-24 h) / AUCdorsal skin (AUC0-24 h): from 4 and 24 h; for AUC(0-t): whole blood, po, AUCblood (AUC0-24 h)
Excerpt: Blood samples were used to analyze whole-blood compound levels and were obtained either from tail-vein during the in-life part into EDTA tubes (CB300, Sarstedt, Germany) or from trunk blood at the day of necropsy into EDTA Eppendorf tubes (Milian S A, CatNoTOM-14, Fisher Scientific, Wohlen, Switzerland), or into serum tubes (CB300Z, Sarstedt, Nümbrecht, Germany).
Brain was removed immediately after decapitation, rinsed with saline and sectioned sagitally down the midline. The left half of the cerebellum was used to analyze compound level and was placed into a glass tube (Chromacol, 125×5-SV T051, Welwyn Garden City, United Kingdom), weighed and frozen in dry-ice, the left half of the forebrain (without olfactory bulb) was used for Aβ analysis, and was frozen on a metal plate on dry ice and placed into protein Lo-bind tube (003 0108.116, Eppendorf, Hamburg, Germany).
Ventral and dorsal skin were taken to analyze compound level, weighed and frozen on dry-ice.
Brain samples were mixed with 2 volumes of KH2PO4 buffer and homogenized using the Covaris® device. Skin samples were mixed with approx. 6-fold volumes of methanol/water and homogenized using a Precellys tube. Either 30 μL of blood, brain or skin homogenate were spiked with a structurally related internal standard and subsequently mixed with an at least 6-fold excess volume acetonitrile for protein precipitation. The supernatant was injected directly into the LC/MS/MS system for analysis.
For tissue exposure, only data at 4 and 24 h were available.

[2] = Body weight, chronic 8-week dosing in wild-type mice; assay type: in vivo, mouse; settings: C57BL/6 mice, 8 weeks chronic treatment
Protocol: (§1) Compound 1 and NB-360 were formulated as a suspension. […] Vehicle: […] in 0.5% methylcellulose in water.
(§2) Body weight was taken 3 times per week (Monday, Wednesday, Friday). Subjective scoring of any hair colour changes was performed once weekly (Wednesday). Scores (% of body with grey fur): 0: No change; 1: Spots; 2: >30%; 3: >50%; 4: >75%; 5: 100%. Animals were photo-documented when fur color change was observed. Final fur color scoring was performed blinded and by a person not involved in the study.

C57BL/6 mice = experiment: Fur colour scoring, chronic 8-week dosing in wild-type mice; assay type: in vivo, mouse
Protocol: as §1, §2

Structure (SMILES): Cc1cc(C#N)cnc1C(=O)Nc1ccc(F)c([C@]2(C)CO[C@@](C)(C(F)(F)F)C(N)=N2)c1 [NB-360, N-(3-((3R,6R)-5-amino-3,6-dimethyl-6-(trifluoromethyl)-3,6-dihydro-2H-1,4-oxazin-3-yl)-4-fluorophenyl)-5-cyano-3-methylpicolinamide]
- AUCbrain (AUC0-24 h) ([1]; C57BL/6, 20 μmol/kg q.d.): 16.39 µmol·h/kg
- AUCventral skin (AUC0-24 h) ([1]; C57BL/6, 20 μmol/kg q.d.): 104.81 µmol·h/kg
- AUCdorsal skin (AUC0-24 h) ([1]; C57BL/6, 20 μmol/kg q.d., n = 2 for 24 h): 46.9^c μmol/kg · h
- AUCbrain (AUC0-24 h) ([1]; C57BL/6, 100 μmol/kg q.d.): 114.45 µmol·h/kg
- AUCdorsal skin (AUC0-24 h) ([1]; C57BL/6, 100 μmol/kg q.d.): 294 µmol·h/kg
- AUCventral skin (AUC0-24 h) ([1]; C57BL/6, 100 μmol/kg q.d.): 712.16 µmol·h/kg
- Kp ([1]; C57BL/6, mouse, brain / whole blood, oral): 2.8
- AUC(0-t) ([1]; C57BL/6, mouse, 20 umol/kg, C57BL/6, 20 μmol/kg q.d., from 1, 4, 7, 24 h time points): 6.93 µM·h
- AUC(0-t) ([1]; C57BL/6, mouse, 20 umol/kg, C57BL/6, 20 μmol/kg q.d., from 4 and 24 h time points): 5.6 µM·h
- AUC(0-t) ([1]; C57BL/6, mouse, 100 umol/kg, C57BL/6, 100 μmol/kg q.d., from 1, 4, 7, 24 h time points): 35.9 µM·h
- AUC(0-t) ([1]; C57BL/6, mouse, 100 umol/kg, C57BL/6, 100 μmol/kg q.d., from 4 and 24 h time points): 25.3 µM·h
- body weight difference compared to vehicle [2]: No overall significant body weight difference
- fur discoloration reached a plateau after (C57BL/6 mice): 5 weeks
- fur colour change (C57BL/6 mice; 20 μmol/kg p.o. once daily, 8 weeks): slight but significant fur score change
- fur colour change (C57BL/6 mice; 100 μmol/kg p.o. once daily, 8 weeks): more severe and profound fur color change
- fur discoloration (C57BL/6 mice; 20 and 100 μmol/kg groups, 8 weeks): All animals in the NB-360 group showed fur discoloration
- appearance of grey patches apparent after (C57BL/6 mice; high and low dose group): 3 weeks
